Results as given in PMC6277767, “Broad and Region-Specific Impacts of the Synthetic Cannabinoid CP 55,940 in Adolescent and Adult Female Mouse Brains” (Frontiers in Molecular Neuroscience, 2018).

System: CD1 female mouse brain lipidome
Test: Brain-region lipid levels (HPLC/MS/MS lipidomics) 2 h after single i.p. 3 mg/kg CP 55,940 vs vehicle
Format: in vivo
Design: N-arachidonoyl phenylalanine level, Mean / N-stearoyl tryptophan level, Mean / N-stearoyl proline level, Mean / N-stearoyl leucine level, Mean / N-stearoyl phenylalanine level, Mean / N-stearoyl serine level, Mean / N-stearoyl methionine level, Mean: unit: moles per gram
Conditions: hippocampus
Description: The Bloomington Institutional Animal Care and Use Committee of Indiana University reviewed and approved the animal procedures. Female mice from the CD1 strain were utilized to match our study examining THC’s effects on the brain lipidome ([Leishman et al., 2018]). Mice were given a single i.p. injection of either 3 mg/kg CP or 1:1:18 cremophor:ethanol:saline vehicle (please refer to the section “3 mg/kg CP Is Relevant for Synthetic Cannabinoid Abuse and Has Stronger Effects on the Female Mouse Brain Lipidome During Adolescence” for a justification of dose and use of female mice). Three different age groups were given injections: PND 35 and PND 50 adolescents, and adult mice (PND 113). At least eight mice in each age group received CP and at least eight received vehicle. Matching the THC study time course ([Leishman et al., 2018]), mice were sacrificed via rapid decapitation 2 h after injection. Brains were immediately removed and flash-frozen in liquid nitrogen, and then stored at -80°C until dissections were performed. Brains were dissected on an ice-cold dissection plate into the following regions: STR, HIPP, CER, THAL, CTX, HYP, MID, and STEM. These abbreviations for these brain areas will be used exclusively when discussing the results generated by these specific dissections. Each dissected area was immediately placed in liquid nitrogen and then stored at -80°C until used for lipid extraction.
Tissue extracts were performed as previously described ([Bradshaw et al., 2006]; [Stuart et al., 2013]; [Raboune et al., 2014]; [Leishman et al., 2016a],[b], [2017], [2018]). First, samples were shock frozen in liquid nitrogen, weighed, and transferred to a centrifuge tube. The mass of the largest sample was multiplied by 50 to determine how many milliliters of HPLC-grade methanol (Fisher, Fair Lawn, NJ, United States) to add. Then, samples were spiked with 500 pmol deuterium-labeled NAGly (d8NAGly; Cayman Chemical, Ann Arbor, MI, United States). Samples were placed on ice in darkness for 2 h then individually homogenized and centrifuged at 19,000 × g for 20 min at 20°C. Supernatants were diluted with HPLC water (purified in house) to make a solution of 75% water, 25% supernatant. Lipids were partially purified on C18 solid phase extraction columns (Agilent, Palo Alto, CA, United States). A series of four elutions with 1.5 mL of 60%, 75%, 85%, and 100% methanol were collected ([Stuart et al., 2013]; [Leishman et al., 2016a],[b], [2018]).
As previously described ([Bradshaw et al., 2006]; [Tan et al., 2006]; [Smoum et al., 2010]; [Stuart et al., 2013]; [Tortoriello et al., 2013]; [Raboune et al., 2014]; [Leishman et al., 2016a],[b], [2017], [2018]), samples were analyzed using an Applied Biosystems API 3000 triple quadrupole mass spectrometer with electrospray ionization (Foster City, CA, United States). Using an Agilent XDB-C18 reversed phase analytical column and optimized mobile phase gradients, 20 μL from each elution were chromatographed. Two Shimadzu 10ADvp pumps (Columbia, MD, United States) provided the pressure for gradient elution. Mobile phase A: 20% methanol, 80% water (v/v) and 1 mM ammonium acetate (Sigma, St. Louis, MO, United States). Mobile phase B: 100% methanol, 1 mM ammonium acetate. Every method run began with 0% mobile phase B, reached 100% mobile phase B flowing at 0.2 mL/min, and gradually returned to 0% mobile phase B.
This screening library will be referred to as the lipidome when discussing data from this study. HPLC/MS/MS data were analyzed using Analyst software (Applied Biosystems) ([Bradshaw et al., 2006]; [Tan et al., 2006]; [Stuart et al., 2013]; [Tortoriello et al., 2013]; [Raboune et al., 2014]; [Leishman et al., 2016a],[b], [2017], [2018]). Chromatograms (Supplementary Figure 3) were generated by determining the retention time of analytes from the analytical column with a [M-1] or [M+1] parent peak and a fragmentation peak corresponding to the programmed values. […]

[1] = PND 35, 3 mg/kg CP 55,940 vs vehicle
[2] = PND 35 WT female mice, 3mg/kg CP 55,940

CCCCCCC(C)(C)c1ccc([C@@H]2C[C@H](O)CC[C@H]2CCCO)c(O)c1 [CP 55,940]
THC level, Mean (adult, 3 mg/kg CP 55,940): BDL | phosphoLEA: Direction (relative to Veh) (adult, 3 mg/kg CP 55,940): ↑ | phosphoLEA: Magnitude (x Veh level) (adult, 3 mg/kg CP 55,940): 1.45 x Veh level | 2-arachidonoyl glycerol: Direction [1]: ↓ | 2-arachidonoyl glycerol: Magnitude [1]: 0.79 | 2-linoleoyl glycerol: Direction [1]: ↓ | 2-linoleoyl glycerol: Magnitude [1]: 0.63 | 2-oleoyl glycerol: Direction [1]: ↓ | 2-oleoyl glycerol: Magnitude [1]: 0.82 | 6-ketoPGF1α: Direction [1]: ↑ | 6-ketoPGF1α: Magnitude [1]: 1.32 | Arachidonic acid: Direction [1]: ↓ | Arachidonic acid: Magnitude [1]: 0.84 | Linoleic acid: Direction [1]: ↓ | Linoleic acid: Magnitude [1]: 0.77 | N-arachidonoyl GABA: Direction [1]: ↓ | N-arachidonoyl GABA: Magnitude [1]: 0.66 | N-arachidonoyl alanine: Direction [1]: ↓ | N-arachidonoyl alanine: Magnitude [1]: 0.76 | N-arachidonoyl ethanolamine: Direction [1]: ↓ | N-arachidonoyl ethanolamine: Magnitude [1]: 0.82 | N-arachidonoyl glycine: Direction [1]: ↓ | N-arachidonoyl glycine: Magnitude [1]: 0.86 | N-arachidonoyl phenylalanine: Direction [1]: ↓ | N-arachidonoyl phenylalanine: Magnitude [1]: 0.76 | N-arachidonoyl serine: Direction [1]: ↓ | N-arachidonoyl serine: Magnitude [1]: 0.49 | N-arachidonoyl taurine: Direction [1]: ↓ | N-arachidonoyl taurine: Magnitude [1]: 0.81 | N-docosahexaenoyl GABA: Direction [1]: ↓ | N-docosahexaenoyl GABA: Magnitude [1]: 0.52 | N-docosahexaenoyl alanine: Direction [1]: ↓ | N-docosahexaenoyl alanine: Magnitude [1]: 0.76 | N-docosahexaenoyl ethanolamine: Direction [1]: ↓ | N-docosahexaenoyl ethanolamine: Magnitude [1]: 0.71 | N-docosahexaenoyl glycine: Direction [1]: ↓ | N-docosahexaenoyl glycine: Magnitude [1]: 0.83 | N-docosahexaenoyl leucine: Direction [1]: ↑ | N-docosahexaenoyl leucine: Magnitude [1]: 1.41 | N-docosahexaenoyl serine: Direction [1]: ↓ | N-docosahexaenoyl serine: Magnitude [1]: 0.74 | N-linoleoyl GABA: Direction [1]: ↓ | N-linoleoyl GABA: Magnitude [1]: 0.55 | N-linoleoyl alanine: Direction [1]: ↓ | N-linoleoyl alanine: Magnitude [1]: 0.82 | N-oleoyl GABA: Direction [1]: ↓ | N-oleoyl GABA: Magnitude [1]: 0.59 | N-oleoyl alanine: Direction [1]: ↓ | N-oleoyl alanine: Magnitude [1]: 0.75 | N-oleoyl ethanolamine: Direction [1]: ↓ | N-oleoyl ethanolamine: Magnitude [1]: 0.77 | N-oleoyl glycine: Direction [1]: ↓ | N-oleoyl glycine: Magnitude [1]: 0.87 | N-oleoyl methionine: Direction [1]: ↓ | N-oleoyl methionine: Magnitude [1]: 0.68 | N-oleoyl valine: Direction [1]: ↑ | N-oleoyl valine: Magnitude [1]: 1.27 | N-palmitoyl alanine: Direction [1]: ↓ | N-palmitoyl alanine: Magnitude [1]: 0.85 | N-palmitoyl ethanolamine: Direction [1]: ↓ | N-palmitoyl ethanolamine: Magnitude [1]: 0.79 | N-palmitoyl leucine: Direction [1]: ↑ | N-palmitoyl leucine: Magnitude [1]: 1.31 | N-palmitoyl phenylalanine: Direction [1]: ↑ | N-palmitoyl phenylalanine: Magnitude [1]: 1.26 | N-palmitoyl tyrosine: Direction [1]: ↑ | N-palmitoyl tyrosine: Magnitude [1]: 1.29 | N-palmitoyl valine: Direction [1]: ↑ | N-palmitoyl valine: Magnitude [1]: 1.24 | N-stearoyl GABA: Direction [1]: ↓ | N-stearoyl GABA: Magnitude [1]: 0.77 | N-stearoyl alanine: Direction [1]: ↓ | N-stearoyl alanine: Magnitude [1]: 0.79 | N-stearoyl glycine: Direction [1]: ↓ | N-stearoyl glycine: Magnitude [1]: 0.87 | N-stearoyl valine: Direction [1]: ↑ | N-stearoyl valine: Magnitude [1]: 1.39 | Oleic acid: Direction [1]: ↓ | Oleic acid: Magnitude [1]: 0.82 | PGF2α: Direction [1]: ↑ | PGF2α: Magnitude [1]: 1.28 | 2-arachidonoyl glycerol level, Mean [2]: 2.47E-10 | 2-linoleoyl glycerol level, Mean [2]: 1.2E-10 | 2-oleoyl glycerol level, Mean [2]: 9.43E-10 | 2-palmitoyl glycerol level, Mean [2]: 7.71E-10 | 6-ketoPGF1α level, Mean [2]: 1.92E-11 | 11-OH-THC level, Mean [2]: BDL | 11-nor-9-carboxyTHC level, Mean [2]: BDL | Arachidonic acid level, Mean [2]: 4.25E-09 | Cannabidiol level, Mean [2]: BDL | Linoleic acid level, Mean [2]: 9.72E-10 | N- stearoyl valine level, Mean [2]: 8.48E-13 | N-arachidonoyl GABA level, Mean [2]: 2.17E-11 | N-arachidonoyl alanine level, Mean [2]: 1.79E-11 | N-arachidonoyl dopamine level, Mean [2]: BDL | N-arachidonoyl ethanolamine level, Mean [2]: 4.75E-11 | N-arachidonoyl glycine level, Mean [2]: 6.69E-11 | N-arachidonoyl methionine level, Mean [2]: PISSR | N-arachidonoyl phenylalanine level, Mean [2]: 1.21E-12 | N-arachidonoyl proline level, Mean [2]: BDL | N-arachidonoyl serine level, Mean [2]: 8.58E-12 | N-arachidonoyl taurine level, Mean [2]: 2.18E-10
